Measurements: US20050069887A1, “Dna synthesis promoters dna polymerase-associated factors and utilization thereof” (priority 2001, published 2005)

How the values were obtained:
EX-Taq DNA polymerase = assay: PCR using EX-Taq with oxalate ion and betaine (Example 2-1); format: biochemical; settings: 2 mM potassium oxalate, 0.5 M betaine, FIG. 11
Procedure: Oxalate ion and betaine were investigated for their synergistic effectiveness in amplification of a target DNA which cannot be usually amplified by PCR using EX-Taq DNA polymerase (TAKARA). Potassium oxalate was added to the PCR buffer attached to EX-Taq DNA polymerase to attain a final concentration of 2 mM. Also used were 0.2 mM dNTPs, 0.3 μM of a pair of primers consisting of the sequences of ID NOs:14 and 15 respectively, and 1.0 U EX-Taq DNA polymerase. 20 ng of genomic DNA derived from human cell line K562 was used as a template. This reaction mixture was subjected to PCR by using GeneAmp2400 (PE Applied Biosystems) to investigate the influence of varying the concentration of betaine added on the PCR results. The PCR conditions were as follows: 1preliminary reaction of 94° C. for 2 minutes, and then 35 cycles of 94° C. for 15 seconds, 60° C. for 30 seconds and 68° C. for 8.5 minutes.

KOD-plus DNA polymerase = molecular target: T1, KOD-plus DNA polymerase (Thermococcus kodakarensis, UniProt P77933, DEL407-766/DEL853-1389); assay: PCR using KOD-plus with oxalate ion and betaine (Example 2-3); format: biochemical, Thermococcus kodakaraensis KOD1; settings: 2 mM potassium oxalate, FIG. 13
T1 construct: purchased Toyobo
Procedure: Oxalate ion and betaine were investigated for their synergistic effectiveness in amplification of a target DNA which cannot be amplified by normal PCR, using KOD-plus DNA polymerase, i.e. a hot start enzyme which is a mixture of KOD (α-type enzyme) and two kinds of KOD antibodies. Potassium oxalate was added to the PCR buffer supplied with KOD-plus (TOYOBO CO., LTD.) to attain a final concentration of 2 mM. Also used were 0.2 mM dNTPs and 0.3 μM of a pair of primers of SEQ ID NOs: 14 and 15. 20 ng of genomic DNA derived from human cell line K562 was used as a template. This reaction mixture was subjected to PCR by using GeneAmp2400 (PE Applied Biosystems) to investigate the influence of varying the concentration of betaine on the PCR results. The PCR conditions were as follows: 1 preliminary reaction of 94° C. for 2 minutes, and then 35 cycles of 94° C. for 15 seconds, 60° C. for 30 seconds and 68° C. for 8.5 minutes.

T1 sequence (P77933 other isoform, or with tags, fused parts or gaps DEL407-766/DEL853-1389): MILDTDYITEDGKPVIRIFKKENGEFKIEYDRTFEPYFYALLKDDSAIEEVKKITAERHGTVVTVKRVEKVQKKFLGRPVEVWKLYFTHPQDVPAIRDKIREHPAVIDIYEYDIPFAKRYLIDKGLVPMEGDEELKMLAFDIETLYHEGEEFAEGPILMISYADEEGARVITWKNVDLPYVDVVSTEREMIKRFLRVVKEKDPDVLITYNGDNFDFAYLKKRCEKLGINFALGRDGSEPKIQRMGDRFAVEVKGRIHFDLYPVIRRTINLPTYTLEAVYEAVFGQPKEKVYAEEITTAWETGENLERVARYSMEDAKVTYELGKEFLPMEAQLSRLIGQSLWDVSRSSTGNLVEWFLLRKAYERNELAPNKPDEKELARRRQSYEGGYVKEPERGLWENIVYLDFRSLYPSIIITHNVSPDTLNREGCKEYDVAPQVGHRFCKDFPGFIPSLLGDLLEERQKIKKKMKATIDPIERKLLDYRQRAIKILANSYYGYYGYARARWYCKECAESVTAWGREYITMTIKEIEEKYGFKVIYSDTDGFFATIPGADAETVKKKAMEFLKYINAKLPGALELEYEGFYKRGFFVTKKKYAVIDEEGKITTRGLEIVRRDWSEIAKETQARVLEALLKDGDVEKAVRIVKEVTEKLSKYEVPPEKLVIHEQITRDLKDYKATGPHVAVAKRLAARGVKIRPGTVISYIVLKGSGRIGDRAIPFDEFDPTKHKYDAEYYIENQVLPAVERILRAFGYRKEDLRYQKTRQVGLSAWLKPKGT

C[N+](C)(C)CC(=O)[O-] [betaine, trimethylglycine]
amplification of target DNA (EX-Taq DNA polymerase): an increase in amplification amount was observed
betaine concentration at which the amount of amplification was greatest (KOD-plus DNA polymerase): 1.5 M
betaine concentration giving an increased amount of amplification of the target DNA (KOD-plus DNA polymerase): 0.5 to 1.5 M
